Key:
Type in all cases: cell-based
[1] = test system: Wnt activity (Sp5-Luc reporter, SW480 colon carcinoma cells); assay: Wnt activity screening assay, Sp5-Luc reporter gene in SW480 cells; details: Homo sapiens; for inhibition at 10 µM: SW480, read-out: percent inhibition at 10 μM; for EC50: Sp5-Luc reporter, SW480 cells, overnight incubation
Text: The screening assay for Wnt activity is described as follows. Reporter cell lines can be generated by stably transducing cancer cell lines (e.g., colon cancer) or primary cells (e.g., IEC-6 intestinal cells) with a lentiviral construct that includes a Wnt-responsive promoter driving expression of the firefly luciferase gene.
SW480 colon carcinoma cells were transduced with a lentiviral vector expressing luciferase with a human Sp5 promoter consisting of a sequence of eight TCF/LEF binding sites. SW480 cells stably expressing the Sp5-Luc reporter gene and a hygromycin resistance gene were selected by treatment with 150 μg/mL of hygromycin for 7 days. These stably transduced SW480 cells were expanded in cell culture and used for all further screening activities. […] For Sp5-Luc reporter gene assays, the cells were plated at 4,000 cells/well in 384-well plates with medium containing 1% fetal bovine serum and incubated overnight at 37° C. and 5% CO2. Following incubation, 20 μl of BrightGlo luminescence reagent (Promega) was added to each well of the 384-well assay plates. The plates were placed on an orbital shaker for 2 min and then luminescence was quantified using the Envision (Perkin Elmer) plate reader. Readings were normalized to DMSO only treated cells, and normalized activities were utilized for EC50 calculations using the dose-response log (inhibitor) vs. response−variable slope (four parameters) nonlinear regression feature available in GraphPad Prism 5.0 (or Dotmatics).

SW480 colon cancer cells = assay: Cell viability assay (CellTiter-Blue); details: Homo sapiens; for EC50: 96 h, SW480 cell viability, four days; for inhibition at 10 µM: SW480, 96 h, read-out: percent inhibition at 10 μM
Experimental: Representative compounds were screened using the following assay procedure to assess the effect on cell viability as described below.
Approximately 2×10^3 SW480 colon cancer cells were seeded into each well and allowed to incubate in the presence or absence of compound for four days at 37° C./5% CO2. Eight replicates of DMSO-treated cells served as controls and cells treated with compound were performed in duplicate.
After incubation, 20 μL of CellTiter-Blue (Promega) was added to each well allowed to incubate for approximately 3 hours. This reagent was a buffered solution which contains resazurin, metabolically active cells were able to reduce rezarurin (blue) into resorufin (pink) which was highly fluorescent. This measured fluorescence was used as a readout for cell viability.

[2] = test system: primary human fibroblasts derived from IPF patients (LL29 cells); assay: Inhibition of fibrotic process, αSMA staining in TGF-β1 treated fibroblasts; details: Fibroblast; for EC50: 96 h, LL29 cells, TGF-β1 20 ng/mL, 4 days, % αSMA positive cells; for inhibition at 10 µM: read-out: percent inhibition at 10 μM
Experimental: Representative compounds were screened using primary human fibroblasts (derived from IPF patients) treated with TGF-β1 to determine their ability to inhibit the fibrotic process.
LL29 cells are plated at 1,500 cells/well in 80 μL/well F12 medium supplemented with 1% Fetal Bovine Serum. […] Wells treated with TGF-31 and containing DMSO were used as controls. […] Following incubation for 4 days, SYTOX green nucleic acid stain (Life Technologies [Thermo Fisher Scientific]) was added to the wells at a final concentration of 1 μM and incubated at room temperature for 30 min.

IL-6 = IL-6 inhibition in LPS-stimulated THP-1 cells (HTRF); details: Homo sapiens; for inhibition at 10 µM: THP-1, read-out: percent inhibition at 10 μM; for EC50: THP-1 cells, LPS 500 ng/mL, 22 hours, IL6 HTRF
Experimental: THP-1 cells were cultured in basal media with 1% FBS for 24 hours before the start of the assay. […] THP-1 cells were plated at 5000 cells/well in the 384-well plates and incubated at 37° C. for 2 h. 500 ng/mL of LPS was added after 2 hours and cells were incubated for another 22 hours at 37° C. Plates were spun in a centrifuge for 1 minute at […] and a mixture of anti-IL6 XL665, and anti-IL6 Cryptate diluted in reconstitution buffer (Cisbio Inc.) was added to each well. Following incubation for 3 hrs at room temperature, Homogeneous Time-Resolved Fluorescence (HTRF) was measured using the Envision (Perkin Elmer) at 665 nm and […]. The ratio of fluorescence at 665 nm to 620 nm was used as a readout for IL6 quantification. All samples were processed in duplicate. Readings were normalized to DMSO treated cells and normalized activities were utilized for EC50 calculations using the dose-response log (inhibitor) vs. response−variable slope (four parameters) nonlinear regression feature available in GraphPad Prism 5.0 (or Dotmatics).

| SMILES | EC50 [1] [µM] | EC50 (SW480 colon cancer cells) [µM] | EC50 (IL-6) [µM] | inhibition at 10 µM [1] [%] | inhibition at 10 µM (SW480 colon cancer cells) [%] | EC50 [2] [µM] | inhibition at 10 µM (IL-6) [%] | inhibition at 10 µM [2] [%] |
| --- | --- | --- | --- | --- | --- | --- | --- | --- |
| O=C(Nc1cncc(-c2cnc3[nH]nc(-c4cc5c(-c6cccc(F)c6)cncc5[nH]4)c3c2)c1)c1ccccc1 [Compound 11, N-(5-(3-(4-(3-Fluorophenyl)-1H-pyrrolo[2,3-c]pyridin-2-yl)-1H-pyrazolo [3,4-b]pyridin-5-yl)pyridin-3-yl)benzamide] | > 10 | > 10 | > 10 | 22.5 | 16.8 | 7.57 | 20.2 |  |
| Fc1cccc(-c2cncc3[nH]c(-c4n[nH]c5ncc(-c6ccncc6)cc45)cc23)c1 [Compound 18, 3-(4-(3-Fluorophenyl)-1H-pyrrolo[2,3-c]pyridin-2-yl)-5-(pyridin-4-yl)-1H-pyrazolo[3,4-b]pyridine] | 4.15 | 1.91 | > 10 |  |  | 1.23 | 20.3 |  |
| O=C(Nc1cncc(-c2cnc3[nH]nc(-c4cc5c(-c6cccc(F)c6)cncc5[nH]4)c3c2)c1)C1CCC1 [Compound 21, N-(5-(3-(4-(3-Fluorophenyl)-1H-pyrrolo[2,3-c]pyridin-2-yl)-1H-pyrazolo [3,4-b]pyridin-5-yl)pyridin-3-yl)cyclobutanecarboxamide] | 0.532 | 0.586 | 0.324 |  |  | 0.31 |  |  |
| CC(C)CC(=O)Nc1cncc(-c2cnc3[nH]nc(-c4cc5c(-c6ccc(F)cc6)cncc5[nH]4)c3c2)c1 [Compound 30, N-(5-(3-(4-(4-Fluorophenyl)-1H-pyrrolo[2,3-c]pyridin-2-yl)-1H-pyrazolo [3,4-b]pyridin-5-yl)pyridin-3-yl)-3-methylbutanamide] | 1.63 | 1.62 | > 10 |  |  | 1.14 | 24.6 |  |
| CC(C)(C)C(=O)Nc1cncc(-c2cnc3[nH]nc(-c4cc5c(-c6ccc(F)cc6)cncc5[nH]4)c3c2)c1 [Compound 36, N-(5-(3-(4-(4-Fluorophenyl)-1H-pyrrolo[2,3-c]pyridin-2-yl)-1H-pyrazolo [3,4-b]pyridin-5-yl)pyridin-3-yl)pivalamide] | > 10 | 2.08 | 0.127 | 18.8 |  | 2.55 |  |  |
| O=C(Nc1cncc(-c2cnc3[nH]nc(-c4cc5c(-c6ccc(F)cc6)cncc5[nH]4)c3c2)c1)C1CCCCC1 [Compound 51, N-(5-(3-(4-(4-Fluorophenyl)-1H-pyrrolo[2,3-c]pyridin-2-yl)-1H-pyrazolo [3,4-b]pyridin-5-yl)pyridin-3-yl)cyclohexanecarboxamide] | 2.94 | 1.44 | 3.47 |  |  | 1.18 |  |  |
| Fc1ccc(-c2cncc3[nH]c(-c4n[nH]c5ncc(-c6ccccn6)cc45)cc23)cc1 [Compound 56, 3-(4-(4-Fluorophenyl)-1H-pyrrolo[2,3-c]pyridin-2-yl)-5-(pyridin-2-yl)-1H-pyrazolo[3,4-b]pyridine] | > 10 | 5.74 | > 10 | 15.5 |  | > 10 | 25 | 38.2 |
| CC(C)(C)CC(=O)Nc1cncc(-c2cnc3[nH]nc(-c4cc5c(-c6ccccc6F)cncc5[nH]4)c3c2)c1 [Compound 72, N-(5-(3-(4-(2-Fluorophenyl)-1H-pyrrolo[2,3-c]pyridin-2-yl)-1H-pyrazolo [3,4-b]pyridin-5-yl)pyridin-3-yl)-3,3-dimethylbutanamide] | 1.01 | 0.747 | 3.12 |  |  | 0.384 |  |  |
| O=C(Nc1cncc(-c2cnc3[nH]nc(-c4cc5c(-c6ccccc6F)cncc5[nH]4)c3c2)c1)C1CCCC1 [Compound 78, N-(5-(3-(4-(2-Fluorophenyl)-1H-pyrrolo[2,3-c]pyridin-2-yl)-1H-pyrazolo [3,4-b]pyridin-5-yl)pyridin-3-yl)cyclopentanecarboxamide] | 0.84 | 0.638 | 1.29 |  |  | 0.408 |  |  |
| CCC(=O)Nc1cncc(-c2cnc3[nH]nc(-c4cc5c(-c6cccnc6)cncc5[nH]4)c3c2)c1 [Compound 85, N-(5-(3-(4-(Pyridin-3-yl)-1H-pyrrolo[2,3-c]pyridin-2-yl)-1H-pyrazolo[3,4-b]pyridin-5-yl)pyridin-3-yl)propionamide] | > 10 | > 10 | > 10 | 9.3 | 10 | > 10 | 34.1 | 44.2 |

The next lines start with results.

| EC50 [1] [µM] | EC50 (SW480 colon cancer cells) [µM] | EC50 (IL-6) [µM] | SMILES | inhibition at 10 µM [1] [%] | inhibition at 10 µM (SW480 colon cancer cells) [%] | EC50 [2] [µM] | inhibition at 10 µM (IL-6) [%] | inhibition at 10 µM [2] [%] |
| --- | --- | --- | --- | --- | --- | --- | --- | --- |
| > 10 | 3.68 | > 10 | c1ccc(-c2cnc3[nH]nc(-c4cc5c(-c6cccnc6)cncc5[nH]4)c3c2)nc1 [Compound 112, 5-(Pyridin-2-yl)-3-(4-(pyridin-3-yl)-1H-pyrrolo[2,3-c]pyridin-2-yl)-1H-pyrazolo[3,4-b]pyridine] | 44.2 |  | 2.19 | 16.9 |  |
| > 10 | > 10 | 0.068 | CC(C)Nc1cncc(-c2cnc3[nH]nc(-c4cc5c(-c6ccncc6)cncc5[nH]4)c3c2)c1 [Compound 124, N-Isopropyl-5-(3-(4-(pyridin-4-yl)-1H-pyrrolo[2,3-c]pyridin-2-yl)-1H-pyrazolo[3,4-b]pyridin-5-yl)pyridin-3-amine] | 15.5 | 3.2 | 2.4 |  |  |
| > 10 | > 10 | > 10 | O=C(Nc1cncc(-c2cnc3[nH]nc(-c4cc5c(-c6ccncc6)cncc5[nH]4)c3c2)c1)C1CCCC1 [Compound 134, N-(5-(3-(4-(Pyridin-4-yl)-1H-pyrrolo[2,3-c]pyridin-2-yl)-1H-pyrazolo[3,4-b]pyridin-5-yl)pyridin-3-yl)cyclopentanecarboxamide] | 0 | 10.6 | > 10 | 30 | 27.9 |
| 9.46 | 4.14 | 3.4 | CCNCc1cncc(-c2cnc3[nH]nc(-c4cc5c(N6CCCCC6)cncc5[nH]4)c3c2)c1 [Compound 174, N-((5-(3-(4-(Piperidin-1-yl)-1H-pyrrolo[2,3-c]pyridin-2-yl)-1H-pyrazolo [3,4-b]pyridin-5-yl)pyridin-3-yl)methyl)ethanamine] |  |  | 3.61 |  |  |
| > 10 | 3.84 | > 10 | O=C(Nc1cncc(-c2cnc3[nH]nc(-c4cc5c(N6CCCCC6)cncc5[nH]4)c3c2)c1)c1ccccc1 [Compound 179, N-(5-(3-(4-(Piperidin-1-yl)-1H-pyrrolo[2,3-c]pyridin-2-yl)-1H-pyrazolo[3,4-b]pyridin-5-yl)pyridin-3-yl)benzamide] | 45.1 |  | 4.59 | 36.1 |  |
| 4.98 | 3.17 | > 10 | c1ncc(-c2cnc3[nH]nc(-c4cc5c(N6CCCCC6)cncc5[nH]4)c3c2)cc1CN1CCCCC1 [Compound 183, 3-(4-(Piperidin-1-yl)-1H-pyrrolo[2,3-c]pyridin-2-yl)-5-(5-(piperidin-1-ylmethyl)pyridin-3-yl)-1H-pyrazolo[3,4-b]pyridine] |  |  | 2.4 | 20.3 |  |

From patent US20180221352A1, “3-(1H-PYRROLO[2,3-C]PYRIDIN-2-YL)-1H-PYRAZOLO[3,4-B]PYRIDINES AND THERAPEUTIC USES THEREOF” (Samumed, LLC, priority 2015, published 2018)
